Test results: publication PMC8208785, “Therapeutic efficacy of novel memantine nitrate MN‐08 in animal models of Alzheimer’s disease” (Aging Cell, 2021)

Columns and labels:
[1] = tested on: NMDA receptors (NMDA‐activated current in rat hippocampal neurons); experiment: whole-cell patch-clamp recording of NMDA-activated current in primary hippocampal neurons; format: cell-based
3×Tg‐AD mice = experiment: Aβ ELISA and Western blotting of APP-processing proteins in 3×Tg-AD mice; format: in vivo
Protocol: Triple transgenic 3×Tg‐AD mice were acquired from Jackson Laboratory and fostered in the Shenzhen Center for Disease Control and Prevention (Shenzhen, China). Eight‐month‐old 3×Tg‐AD mice were categorized into six groups: (1) 3×Tg‐AD +Vehicle group; (2) 3×Tg‐AD +MN‐08 (3 mg/kg) group; (3) 3×Tg‐AD +MN‐08 (6 mg/kg) group; (4) 3×Tg‐AD +MN‐08 (12 mg/kg) group; (5) 3×Tg‐AD +Memantine (Mem, 5 mg/kg) group; (6) 3×Tg‐AD +Donepezil (Done, 1.3 mg/kg, once daily) group; (7) Eight‐month‐old B6129SF2/J mice as a control group. MN‐08 and memantine were given twice daily (Done, once daily) by gastric gavage for 4 months from 8 months of age.
To evaluate the concentration of soluble and insoluble Aβ in AD mice, the hippocampus and cortex were homogenized in the lysate, which was then centrifuged at 12000 g for 30 min at 4°C. Supernatant samples were collected as soluble Aβ. Sediment of the cortex and hippocampus was resuspended with formic acid, incubated on ice for 60 min and then centrifuged at 12,000 g for 30 min at 4°C. The supernatant and Tris/NaH2PO4 buffer were mixed as insoluble Aβ. The concentration of Aβ was analyzed by ELISA kit of human amyloid β (R&D Systems, Minneapolis, MN, USA) following the manufacturer’s instructions.
(§1) Western blotting analysis was performed as previously described with minor modifications (Huang, Li, & Nan, 2017). Proteins were extracted from hippocampal tissue and their concentrations determined by the BCA protein assay kit (Fdbio science, Hangzhou, China). The protein (20 μg) was separated on a 12% SDS-PAGE gel and then transferred to PVDF membranes. The membranes were blocked using 5 % nonfat dry milk for 2 h. The protein blots were incubated with the corresponding primary antibodies against p-Akt (#4060, 1:1000, Cell Signaling Technology), Akt (#4685, 1:1000, Cell Signaling Technology), BACE1 (#5606, 1:1000, Cell Signaling Technology), PS1 (#5643, 1:1000, Cell Signaling Technology), p-GSK3β (#5558, 1:1000, Cell Signaling Technology), GSK3β (#12456, 1:1000, Cell Signaling Technology), Bcl-2 (#3498, 1:1000, Cell Signaling Technology), Bax (#5023, 1:1000, Cell Signaling Technology), Cleaved caspase-3 (#9661, 1:1000, Cell Signaling Technology), Caspase-3 (#9662, 1:1000, Cell Signaling Technology), ADAM10 (#14194, 1:1000, Cell Signaling Technology), APP (#ab241592, 1:1000, Abcam), sAPPα (#ab126723, 1:1000, Abcam), NEP (#ab216341, 1:1000, Abcam), Synapsin I (#ab64581, 1:1000, Abcam), Synapsin II (#ab76494, 1:1000, Abcam), NR2A (#ab124913, 1:2000, Abcam), PSD95 (#ab18258, 1:1000, Abcam), Synaptophysin (#ab32127, 1:1000, Abcam), IDE (#ab133561, 1:1000, Abcam), Drebin (#ab178408, 1:1000, Abcam) and Tau-5 (#ab80579, 1:2000, Abcam) overnight at 4°C. After washing 3 times, the membranes were incubated with the respective HRP-conjugated secondary antibody. ECL Western blotting Detection Reagents (Fdbio science, Hangzhou, China) were used to perform Chemiluminescence detection. Quantitative analysis of protein bands was conducted by the Carestream system (Carestream Health, Inc, USA).

APP/PS1 mice = experiment: Western blotting and NeuN staining in hippocampi of APP/PS1 mice (Tau, synapse and apoptosis proteins); format: in vivo; conditions: MN‐08 6 mg/kg
Protocol: APP/PS1 transgenic mice were purchased from Jackson Laboratory and reproduced in the Shenzhen Center for Disease Control and Prevention (Shenzhen, China). Two‐month‐old APP/PS1 mice were divided into four groups: (1) APP/PS1 + Vehicle group; (2) APP/PS1 + MN‐08 (6 mg/kg) group; (3) APP/PS1 + Memantine (Mem, 5 mg/kg) group; (4) APP/PS1 + Donepezil (Done, 1.3 mg/kg, once daily) group; (5) Two‐month‐old C57BL/6J mice as a control group. The APP/PS1 mice were administered drugs twice a day (Done, once daily) by gastric gavage from ages 2 to 8 months for 6 months successively. Control and vehicle groups received equal volumes of saline.
Immunohistochemistry and immunofluorescence staining were carried out as previously described (Zhang et al., 2017). Coronal brain sections were incubated with […] sodium citrate (pH 6.0) and heated for 15 min. After cooling to room temperature, the sections were immersed in 3 % H2O2 for 10 min followed by blocking solution (10 % fetal bovine serum, 1 % bovine serum albumin and 0.1 % Triton X-100) for 1 h. Sections were then incubated with the following appropriate primary antibodies overnight at 4°C: anti-Aβ1-42 antibody (#ab10148, 1:1000, Abcam), anti-Aβ1-16 antibody (#803014, 1:1000, Abcam) and anti-NeuN antibody (#ab177487, 1:400, Abcam). After rinsing 3 times, the sections of immunohistochemistry staining were incubated with biotin-conjugated universal secondary antibody (Gene Tech, Shanghai, China). For immunofluorescence staining, the sections were incubated with appropriate secondary antibodies for 2 h at room temperature. Image J software was used to analyze the fluorescence intensity and cell counting from six slices at similar coronal positions of each animal; this was performed by a viewer blinded to the experimental group.
as §1, with “ECL Western blotting Detection Reagents (Fdbio science, Hangzhou, China) were used to perform Chemiluminescence detection.” left out

normal rats = tested on: normal rats; set-up: method as in Luo et al., 2019; conditions: ref Luo et al., 2019; cited from earlier work
[2] = tested on: experimental subarachnoid hemorrhage models; set-up: method as in Luo et al., 2019; conditions: ref Luo et al., 2019; cited from earlier work
[3] = MN‐08 6 mg/kg, hippocampi, Western blot

## CCC12CC3CC(N)(C1)CC(CO[N+](=O)[O-])(C3)C2 (stereo not shown) [MN‐08]
[1]
  IC50 on NMDA‐mediated current compared with memantine: slightly high than memantine
[1]; MN‐08 1–30 µM, whole‐cell patch‐clamp
  NMDA‐activated current: inhibited
[1]; NMDA 30 µM, −50 mV
  NMDA‐activated current after washout of the compound (off‐rate): recovered rapidly
[1]; holding potential −50 mV, NMDA 30 μM, rat hippocampal neurons, read-out: IC50 on the inhibition of NMDA‐mediated current
  IC50: 7.32 ± 0.23 µM
3×Tg‐AD mice; MN‐08 6 mg/kg, hippocampal and cortical areas
  Aβ accumulation (ELISA): significant reduction
3×Tg‐AD mice; [3]
  expression of total APP: significantly decreased
  expression of α‐secretase (ADAM10) and neprilysin (NEP): enhanced
  levels of sAPPα: increasing
3×Tg‐AD mice; hippocampi, Western blot
  expression of IDE, PS1, or BACE1: no effect
APP/PS1 mice; prevention study
  Tau hyperphosphorylation in the hippocampi: consistently suppressed
  expression of synapse‐related proteins (SYP, PSD95, SYN I, SYN II, drebrin): reversal of the depressed expression
  neuronal loss in the hippocampus (NeuN): prevented
APP/PS1 mice; hippocampi
  expression ratio of Bcl‐2/Bax: upregulating
  expression ratio of cleaved Caspase‐3 to Caspase‐3: downregulating
Normal rats
  blood pressure: does not, however, change
[2]
  cerebral blood flow: increase
